Laboratory results from ChEMBL document CHEMBL3882725, “Indazole derivatives as JNK inhibitors and compositions and methods related thereto” (2002).

These compounds were tested against Mitogen-activated protein kinase 9 (Homo sapiens, UniProt P45984) (assay: Inhibition of His6-tagged JNK2 (unknown origin) assessed as reduction in c-Jun phosphorylation using GST-c-Jun (1 to 79 residues) and [gamma32P]ATP incubated for 1 hr by scintillation counting assay).
Sequence of Mitogen-activated protein kinase 9 (P45984 whole entry, the tested form may be a part): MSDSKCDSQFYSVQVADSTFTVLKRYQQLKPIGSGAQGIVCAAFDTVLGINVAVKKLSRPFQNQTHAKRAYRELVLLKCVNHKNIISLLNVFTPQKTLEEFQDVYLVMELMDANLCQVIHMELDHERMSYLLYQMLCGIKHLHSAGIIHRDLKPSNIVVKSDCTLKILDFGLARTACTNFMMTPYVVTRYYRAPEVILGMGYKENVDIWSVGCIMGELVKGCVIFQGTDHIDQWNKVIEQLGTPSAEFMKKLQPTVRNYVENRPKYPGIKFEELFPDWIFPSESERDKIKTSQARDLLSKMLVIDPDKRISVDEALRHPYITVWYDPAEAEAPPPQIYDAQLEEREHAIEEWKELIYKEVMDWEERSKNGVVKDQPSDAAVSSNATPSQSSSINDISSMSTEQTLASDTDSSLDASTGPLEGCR

IC50 | SMILES
0.5 to 10 µM | O=C(Nc1ccncc1)c1cccc(-c2n[nH]c3ccc(-c4nc[nH]n4)cc23)c1
0.5 to 10 µM | CN(C)Cc1nc(-c2ccc3[nH]nc(-c4cccc(C(=O)NC(C)(C)C)c4)c3c2)n[nH]1
0.5 to 10 µM | O=C(NCCc1ccccc1)c1cccc(-c2n[nH]c3ccc(-c4nc[nH]n4)cc23)c1
1 to 10 µM | c1cncc(COc2cccc(-c3n[nH]c4ccc(-c5nc[nH]n5)cc34)c2)c1
0.5 to 10 µM | O=C(NC1CCN(Cc2ccccc2)CC1)c1cccc(-c2n[nH]c3ccc(-c4nc[nH]n4)cc23)c1
0.5 to 10 µM | CN(C)Cc1nc(-c2ccc3[nH]nc(-c4cccc(C(=O)N[C@@H]5CCc6ccccc65)c4)c3c2)n[nH]1
0.5 to 10 µM | O=C(NCCN1CCOCC1)c1cccc(-c2n[nH]c3ccc(-c4nc[nH]n4)cc23)c1
1 to 10 µM | NC(=O)c1ccc2[nH]nc(-c3cccc(NC(=O)c4cccc(O)c4)c3)c2c1
1 to 10 µM | NC(=O)c1ccc2[nH]nc(-c3ccc4c(c3)OCCO4)c2c1
1 to 10 µM | NC(=O)c1ccc2[nH]nc(-c3cccc(OCCN4CCCCC4)c3)c2c1
0.5 to 10 µM | O=C(Nc1cccc2c1CCCC2)c1cccc(-c2n[nH]c3ccc(-c4nc[nH]n4)cc23)c1
1 to 10 µM | O=C(O)c1cccc(-c2n[nH]c3ccc(-c4nc[nH]n4)cc23)c1
1 to 10 µM | COc1ccc2cc(-c3n[nH]c4ccc(-c5nc[nH]n5)cc34)ccc2c1
1 to 10 µM | c1ccc2ncc(-c3n[nH]c4ccc(-c5nc[nH]n5)cc34)cc2c1
1 to 10 µM | c1nc(-c2ccc3[nH]nc(-c4ccc5c(c4)OCCO5)c3c2)n[nH]1
0.5 to 10 µM | COc1ccc(C(=O)Nc2cccc(-c3n[nH]c4ccc(-c5nc[nH]n5)cc34)c2)cc1
0.5 to 10 µM | O=C(NCCC1CCN(Cc2ccccc2)CC1)c1cccc(-c2n[nH]c3ccc(-c4nc[nH]n4)cc23)c1
1 to 10 µM | Cc1ccc(C(=O)Nc2cccc(-c3n[nH]c4ccc(-c5nc[nH]n5)cc34)c2)cc1
1 to 10 µM | CC(C(=O)Nc1cccc(-c2n[nH]c3ccc(C(N)=O)cc23)c1)c1ccccc1 (centres undefined)
1 to 10 µM | NC(=O)c1ccc2[nH]nc(-c3cccc(NC(=O)Cc4ccc(C(F)(F)F)cc4)c3)c2c1
0.5 to 10 µM | CN(C)Cc1n[nH]c(-c2ccc3[nH]nc(-c4cccc(C(=O)NC5CC5)c4)c3c2)n1

IC50 | SMILES
0.5 to 10 µM | O=C(NC1CCC1)c1cccc(-c2n[nH]c3ccc(-c4nc[nH]n4)cc23)c1
1 to 10 µM | CN(C)c1ccc(CC(=O)Nc2cccc(-c3n[nH]c4ccc(C(N)=O)cc34)c2)cc1
0.5 to 10 µM | CN(C)Cc1n[nH]c(-c2ccc3[nH]nc(-c4cccc(C(=O)NC5CCC5)c4)c3c2)n1
0.5 to 10 µM | O=C(Nc1cccc(-c2n[nH]c3ccc(-c4nc[nH]n4)cc23)c1)c1ccccc1
1 to 10 µM | O=C(Nc1ccc(-c2n[nH]c3ccc(-c4nc[nH]n4)cc23)cc1)c1cccnc1
1 to 10 µM | CN(C)CC(=O)Nc1ccc(-c2n[nH]c3ccc(-c4nc[nH]n4)cc23)cc1
1 to 10 µM | O=C(Nc1cccc(-c2n[nH]c3ccc(-c4nc[nH]n4)cc23)c1)c1ccc(Cl)cc1Cl
1 to 10 µM | NC(=O)c1ccc2[nH]nc(-c3cccc(NC(=O)CCc4ccc(F)cc4)c3)c2c1
1 to 10 µM | NC(=O)c1ccc2[nH]nc(-c3cccc(NC(=O)Cc4ccc(Cl)cc4Cl)c3)c2c1
0.5 to 10 µM | CN(C)Cc1nc(-c2ccc3[nH]nc(-c4cccc(C(=O)NCc5ccc(F)cc5)c4)c3c2)n[nH]1
0.5 to 10 µM | O=c1[nH]c(-c2ccc3[nH]nc(-c4ccc(F)cc4)c3c2)no1
1 to 10 µM | COCC(=O)Nc1ccc(-c2n[nH]c3ccc(-c4nc[nH]n4)cc23)cc1
0.5 to 10 µM | O=C(N[C@H]1C[C@@H]1c1ccccc1)c1cccc(-c2n[nH]c3ccc(-c4nc[nH]n4)cc23)c1
0.5 to 10 µM | NC(=O)c1ccc2[nH]nc(-c3cccc(NC(=O)Cc4ccc(F)cc4)c3)c2c1
0.5 to 10 µM | O=C(NC1CCCC1)c1cccc(-c2n[nH]c3ccc(-c4nc[nH]n4)cc23)c1
1 to 10 µM | NC(=O)c1ccc2[nH]nc(-c3cccc(NC(=O)C4CC4)c3)c2c1
0.5 to 10 µM | O=C(Nc1ccc(-c2n[nH]c3ccc(-c4nn[nH]n4)cc23)cc1)c1cccnc1
1 to 10 µM | COCCOc1cccc(-c2n[nH]c3ccc(-c4nc[nH]n4)cc23)c1
1 to 10 µM | NC(=O)c1ccc2[nH]nc(-c3cccc(NC(=O)Cc4ccc(F)c(F)c4)c3)c2c1
0.5 to 10 µM | O=C(Nc1ccccc1)c1cccc(-c2n[nH]c3ccc(-c4nc[nH]n4)cc23)c1
0.5 to 10 µM | NC(=O)c1ccc2[nH]nc(-c3cccc(NC(=O)Cc4ccccc4F)c3)c2c1

IC50 | SMILES
0.5 to 10 µM | O=C(Nc1ccc(F)cc1)c1cccc(-c2n[nH]c3ccc(-c4nc[nH]n4)cc23)c1
0.5 to 10 µM | O=C(CN1CCOCC1)Nc1cccc(-c2n[nH]c3ccc(-c4nc[nH]n4)cc23)c1
1 to 10 µM | COc1ccc2cc(-c3n[nH]c4ccc(C(N)=O)cc34)ccc2c1
0.5 to 10 µM | CC(C)CC(=O)Nc1cccc(-c2n[nH]c3ccc(-c4nc[nH]n4)cc23)c1
0.5 to 10 µM | CN(C)Cc1n[nH]c(-c2ccc3[nH]nc(-c4cccc(C(=O)NC5Cc6ccccc6C5)c4)c3c2)n1
0.5 to 10 µM | O=C(NC1CCCCC1)c1cccc(-c2n[nH]c3ccc(-c4nc[nH]n4)cc23)c1
1 to 10 µM | NC(=O)c1ccc2[nH]nc(-c3cccc(NC(=O)Cc4ccc(F)cc4Cl)c3)c2c1
0.5 to 10 µM | CC(C)C(=O)Nc1cccc(-c2n[nH]c3ccc(-c4nc[nH]n4)cc23)c1
1 to 10 µM | NC(=O)c1ccc2[nH]nc(-c3ccc4c(c3)CCO4)c2c1
0.5 to 10 µM | O=C(Nc1cccnc1)c1cccc(-c2n[nH]c3ccc(-c4nc[nH]n4)cc23)c1
0.5 to 10 µM | CN(C)Cc1n[nH]c(-c2ccc3[nH]nc(-c4cccc(C(=O)Nc5ccccc5)c4)c3c2)n1
1 to 10 µM | NC(=O)c1ccc2[nH]nc(-c3cccc(NC(=O)Cc4ccc(Cl)cc4)c3)c2c1
0.5 to 10 µM | O=C(NC1CC1)c1cccc(-c2n[nH]c3ccc(-c4nc[nH]n4)cc23)c1
0.5 to 10 µM | CN(C)Cc1n[nH]c(-c2ccc3[nH]nc(-c4cccc(C(=O)Nc5ccc(F)cc5)c4)c3c2)n1
0.5 to 10 µM | COCCNC(=O)c1cccc(-c2n[nH]c3ccc(-c4nc[nH]n4)cc23)c1
1 to 10 µM | c1nc(-c2ccc3[nH]nc(-c4ccc5c(c4)CCO5)c3c2)n[nH]1
1 to 10 µM | CS(=O)(=O)Nc1ccc(-c2n[nH]c3ccc(-c4nc[nH]n4)cc23)cc1
1 to 10 µM | O=C(Nc1cccc(-c2n[nH]c3ccc(-c4nc[nH]n4)cc23)c1)c1ccc(Cl)cc1
0.5 to 10 µM | O=C(NC1CCN(Cc2ccccc2)C1)c1cccc(-c2n[nH]c3ccc(-c4nc[nH]n4)cc23)c1 (centres undefined)
1 to 10 µM | NC(=O)c1ccc2[nH]nc(-c3cccc(NC(=O)CCc4ccccc4)c3)c2c1
0.5 to 10 µM | CC(C)NC(=O)c1cccc(-c2n[nH]c3ccc(-c4nc[nH]n4)cc23)c1

SMILES | IC50
CN(C)Cc1n[nH]c(-c2ccc3[nH]nc(-c4cccc(C(=O)NCCN5CCCCC5)c4)c3c2)n1 | 0.5 to 10 µM
CN(C)Cc1nc(-c2ccc3[nH]nc(-c4ccc5c(c4)OCO5)c3c2)n[nH]1 | 0.5 to 10 µM
COc1ccc(-c2n[nH]c3ccc(-c4n[nH]c(CN(C)C)n4)cc23)cc1 | 0.5 to 10 µM
CN(C)Cc1n[nH]c(-c2ccc3[nH]nc(-c4cc5ccccc5o4)c3c2)n1 | 1 to 10 µM
NC(=O)c1ccc2[nH]nc(-c3cccc(C(=O)NCCN4CCCCC4)c3)c2c1 | 1 to 10 µM
O=C(NCCN1CCCCC1)c1cccc(-c2n[nH]c3ccc(-c4nc[nH]n4)cc23)c1 | 0.5 to 10 µM
